According to ChEMBL document CHEMBL1146495, “Iridoids as allelochemicals and DNA polymerase inhibitors” (J Nat Prod, 2004):
Activity calls are given as the source filed them. The calls are words filed in the database; no cut-off is given here.

Assays:
[1] = target: DNA polymerase I, thermostable (Thermus aquaticus) (UniProt P19821); assay: Inhibition of Thermus aquaticus-DNA polymerase at 500 uM by PCR analysis
Tribolium castaneum [2] = assay: Antifeedant activity against Tribolium castaneum assessed as relative growth rate at 200 ug/disk after 5 days by flour disk assay; format: functional
Tribolium castaneum [3] = assay: Insecticidal activity against Tribolium castaneum fifth instar larvae assessed as mortality at 60 ug/uL, treated topically; format: functional
Tribolium castaneum [4] = assay: Antifeedant activity against Tribolium castaneum assessed as relative consumption rate at 200 ug/disk after 5 days by flour disk assay; format: functional
Tribolium castaneum [5] = assay: Insecticidal activity against Tribolium castaneum fifth instar larvae assessed as pupal stage duration at 60 ug/uL, treated topically; format: functional
[6] = target: DNA polymerase I, thermostable (Thermus aquaticus, UniProt P19821); assay: Inhibition of Thermus aquaticus-DNA polymerase by PCR analysis
DNA polymerase I, thermostable, sequence (P19821 whole entry): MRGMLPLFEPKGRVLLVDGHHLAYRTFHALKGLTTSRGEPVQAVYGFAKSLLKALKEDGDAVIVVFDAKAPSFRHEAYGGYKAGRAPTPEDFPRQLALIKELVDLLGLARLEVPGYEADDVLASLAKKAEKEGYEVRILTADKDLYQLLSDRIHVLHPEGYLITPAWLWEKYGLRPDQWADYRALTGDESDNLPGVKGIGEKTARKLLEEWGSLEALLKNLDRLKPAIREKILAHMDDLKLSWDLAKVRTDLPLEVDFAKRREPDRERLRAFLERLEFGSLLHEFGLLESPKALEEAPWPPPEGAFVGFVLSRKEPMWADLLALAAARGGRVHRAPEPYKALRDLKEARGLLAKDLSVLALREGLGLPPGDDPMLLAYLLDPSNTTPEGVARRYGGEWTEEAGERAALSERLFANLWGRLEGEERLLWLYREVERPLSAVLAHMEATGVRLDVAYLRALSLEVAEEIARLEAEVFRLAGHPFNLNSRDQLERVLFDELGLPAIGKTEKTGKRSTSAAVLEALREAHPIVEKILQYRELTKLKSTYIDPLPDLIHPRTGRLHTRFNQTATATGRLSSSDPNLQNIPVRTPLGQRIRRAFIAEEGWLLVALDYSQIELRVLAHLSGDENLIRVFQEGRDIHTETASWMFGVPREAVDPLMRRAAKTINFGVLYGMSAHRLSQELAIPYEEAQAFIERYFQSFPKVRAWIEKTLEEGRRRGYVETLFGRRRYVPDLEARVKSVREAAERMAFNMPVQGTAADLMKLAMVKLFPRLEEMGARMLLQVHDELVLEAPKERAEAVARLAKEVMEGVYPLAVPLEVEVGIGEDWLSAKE

Tribolium castaneum [7] = assay: Antifeedant activity against Tribolium castaneum assessed as efficiency of conversion of ingested food at 200 ug/disk after 5 days by flour disk assay; format: functional, Instar larval stage
Tribolium castaneum [8] = assay: Antifeedant activity against Tribolium castaneum assessed as feeding deterrence index at 200 ug/disk after 5 days by flour disk assay; format: functional, organism-based

DNA polymerase I, thermostable (Thermus aquaticus), sequence (P19821 whole entry): as above

Activity [1] | Compound | Activity (Tribolium castaneum [2]) | Activity (Tribolium castaneum [3]) | Activity (Tribolium castaneum [4]) | Activity (Tribolium castaneum [5]) | IC50 [6] | Activity (Tribolium castaneum [7]) | Activity (Tribolium castaneum [8])
inactive | OC[C@H]1O[C@@H](O[C@@H]2OCC[C@H]3[C@H](O)[C@@H]4O[C@]4(CO)[C@@H]23)[C@H](O)[C@@H](O)[C@@H]1O | – | – | – | – | – | – | –
inactive | CC(=O)OC[C@H]1O[C@@H](O[C@@H]2OC=C[C@H]3[C@H](OC(C)=O)[C@@H]4O[C@]4(COC(C)=O)[C@@H]23)[C@H](OC(C)=O)[C@@H](OC(C)=O)[C@@H]1OC(C)=O | – | – | – | – | – | – | –
– | CC(=O)O[C@@]1(C)C[C@@H](O)[C@]2(O)C=CO[C@@H](O[C@@H]3O[C@H](CO)[C@@H](O)[C@H](O)[C@H]3O)[C@@H]21 | -0.004 mg/mg/day | 56.6% | 0.058 mg/mg/day | 11.3 days | 214 µM | -8.908% | inactive
inactive | CCCCCCCC/C=C\CCCCCCCCOC[C@H]1O[C@@H](O[C@@H]2OC=C[C@H]3[C@H](O)[C@@H]4O[C@]4(COCCCCCCCC/C=C\CCCCCCCC)[C@@H]23)[C@H](O)[C@@H](O)[C@@H]1O | – | – | – | – | – | – | –
inactive | CC(=O)O[C@@H]1[C@@H](OC(C)=O)[C@H](O[C@@H]2OC=C[C@H]3[C@H](OC(C)=O)[C@@H]4O[C@]4(CO[Si](c4ccccc4)(c4ccccc4)C(C)(C)C)[C@@H]23)O[C@H](CO[Si](c2ccccc2)(c2ccccc2)C(C)(C)C)[C@H]1OC(C)=O | – | – | – | – | – | – | –
– | OC[C@H]1O[C@@H](O[C@@H]2OC=C[C@H]3[C@H](O)[C@@H]4O[C@]4(CO)[C@@H]23)[C@H](O)[C@@H](O)[C@@H]1O [CATALPOL] | -0.01 mg/mg/day | 73.3% | 0.017 mg/mg/day | 8.2 days | 47.8 µM | -66.101% | inactive
– | C[C@]1(O)C[C@@H](O)[C@]2(O)C=CO[C@@H](O[C@@H]3O[C@H](CO)[C@@H](O)[C@H](O)[C@H]3O)[C@@H]21 [HARPAGIDE] | – | – | – | – | 417 µM | – | –
– | C[C@]1(O)C[C@@H](O)[C@]2(O)C=CO[C@@H](O[C@H]3O[C@H](CO)[C@@H](O)[C@H](O)[C@H]3O)[C@@H]21 [HARPAGIDE] | -0.003 mg/mg/day | 60% | 0.019 mg/mg/day | 12.1 days | – | -30.729% | inactive
